Results reported in patent US10206894B2, “Compounds for use in treatment of mucositis” (priority 2011, dated 2019).
Where two headings read alike, the source gives them in different places.

Test system: fractionated radiation and cisplatin induced oral mucositis, left buccal cheek pouch
Assay type: in vivo
Settings: for peak mean mucositis score: peak on Day 19
Protocol: Seventy (70) male Syrian Golden Hamsters were used in this example. Mucositis was induced using a combination of fractionated radiation and cisplatin. Cisplatin was administered on Days 0 and 6 at a dose of 5 mg/kg by i.p. injection. Each hamster was administered a total radiation dose of 60 Gy directed to their left buccal cheek pouch split into eight equal fractions of 7.5 Gy provided on Days 0, 1, 2, 3, 6, 7, 8 and 9. Radiation was generated with a 160 kilovolt potential (15-ma) source at a focal distance of 50 cm, hardened with a 0.35 mm Cu filtration system. Irradiation targeted the left buccal pouch mucosa at a rate of 2.0 Gy/minute. Prior to irradiation, animals were anesthetized with an i.p. injection of ketamine (160 mg/mL) and xylazine (8 mg/mL). The left buccal pouch was everted, fixed and isolated using a lead shield. Test materials were administered topically to the left cheek pouch three times daily, as detailed in Table 3 at a dose of 3 mg/mL in a volume of 0.5 mL per dose, either on the days of radiation (Days 0-3, 6-9), the days on which radiation was not administered (−1, 4, 5 and 10), Days 0-12 or Days 0-35. Mucositis in the left cheek pouch was evaluated clinically starting on Day 7, and continuing on alternate days until Day 35. On Day 35, all animals were euthanized by CO2 inhalation and death was confirmed by monitoring heartbeat in accordance with USDA guidelines.
The mucositis score, weight change and survival were measured throughout the study. For the evaluation of mucositis, the animals were anesthetized with an inhalation anesthetic, and the left pouch everted. Mucositis was scored visually by comparison to a validated photographic scale, ranging from 0 for normal, to 5 for severe ulceration (as described above in Example 2). A score of 1-2 is considered to represent a mild stage of the disease, whereas a score of 3-5 is considered to indicate moderate to severe mucositis. Following visual scoring, a digital image was taken of each animal's mucosa using a standardized technique. At the conclusion of the experiment, images were randomly numbered and scored by two independent trained observers graded the photographs in blinded fashion using the above-described scale (blinded scoring).
The grade of mucositis was scored, beginning on day 7, and for every second day thereafter, through and including day 35, The effect on mucositis of each drug treatment compared to placebo was assessed according to the following parameters: the difference in the number of days hamsters in each group had ulcerative (score ≥3) mucositis and the rank sum differences in daily mucositis scores.
On each evaluation day, the number of animals with a blinded mucositis score of ≥3 in each drug treatment group was compared to the control group. Differences were compared on a cumulative basis and statistical significance was determined by chi-square analysis. Efficacy, in this analysis, is defined by a significant reduction in the number of days that a group of animals had ulcerations (scores ≥3) when compared to the control group.
For each evaluation day the scores of the control group were compared to those of the treated groups using non-parametric rank sum analysis. Treatment success was considered as a statistically significant lowering of scores in the treated group on 2 or more days from day 6 to day 28.
All animals were weighed daily and their survival recorded to assess possible differences in animal weight among treatment groups as an indication for mucositis severity and/or possible toxicity resulting from the treatments. No deaths were observed during this study.
An analysis of the severity of mucositis was performed using the Mann-Whitney rank sum analysis to compare the scores for each treatment group to the controls on each day of the analysis. In this analysis, 2 days of significant reduction in the mucositis score are generally required before it is regarded as meaningful.

## N=C(N)NCCCCC(=O)Nc1cc(C(F)(F)F)cc(NC(=O)c2cc(C(=O)Nc3cc(C(F)(F)F)cc(NC(=O)CCCCNC(=N)N)c3OC3CCNC3)ncn2)c1OC1CCNC1 (centres unmarked) [Compound X]
3 mg/mL tid Day 0 until Day 35, Days 11 (p=0.002), 13 (p=0.023), 15-35 (p<0.001)
  mucositis scores vs saline control group (Mann-Whitney rank sum): statistically significant reductions
3 mg/mL tid Day 0 until Day 35, Days 17-35 (p<0.001 for all days)
  mucositis scores vs Kleptose control group (Mann-Whitney rank sum): statistically significant reductions
3 mg/rid (in Kleptose vehicle), dosed Days 0-3 and 6-9
  peak mean mucositis score: 3.1
Fractionated Radiation
  % reduction of animal days with OM scores ≥ 3: 92.6%
Dosed Day 0 to Day 35, 100% in saline and vehicle controls
  percentage of hamsters in which an ulcer formed during the study: 10%
Dosed Days 0-3 and 6-9, on Day 17, continued until Day 29
  ulceration rate: 100%
Dosed Days 0-3 and 6-9, saline control 54.7%
  percentage of animal days with a score of 3 or higher: 58.0%
Dosed Days 0-12, maximum on Days 19, 21 and 23
  maximum mean mucositis score: 3.1
Dosed Days 0-12, on Day 17, continued until Day 27
  ulceration rate: 100%
Dosed Days 0-12, saline control 54.7%
  percentage of animal days with a score of 3 or higher: 58.0%
Dosed Days 0-35, maximum on Days 19 and 21
  maximum mean mucositis score: 2.1
Dosed Days 0-35, on Days 15-23 (single hamster)
  ulceration rate: 10%
Dosed Days 0-35, saline control 54.7%, Kleptose vehicle 56.0%, p<0.001
  percentage of animal days with a score of 3 or higher (incidence of ulcerative oral mucositis): 3.3%
Dosed Days −1, 4, 5, and 10, on Day 19 only
  ulceration rate: 100%
Dosed Days −1, 4, 5, and 10
  peak mean mucositis score: 3.1
Dosed Days −1, 4, 5, and 10, saline control 54.7%
  percentage of animal days with a score of 3 or higher: 48.0%
Dosed Days −1, 4, 5 and 10, Days 21 (p=0.018), 23, 25 (p=0.040), 33, 35 (p=0.036)
  mucositis scores vs control (Mann-Whitney rank sum): statistically significant reductions
Fractionated radiation model, oral rinse 3 times daily, 35 day treatment regimen
  daily mean mucositis scores and number of days animals exhibited ulceration: significantly reduced
hamster, in vivo
  adverse findings in weight gain, general behavior in the home cage, or clinical signs: no adverse findings
  adverse reaction to treatment: no evidence of any adverse reaction
